Experimental data as given in patent publication US20240335452A1, “COMPOSITIONS AND METHODS OF COMBINATION THERAPY FOR TARGETING LYMPHOMA” (Cullgen (Shanghai), Inc., priority 2021, published 2024).

What was measured:
IKZF1 or IKZF3 = settings: more potent than older IMiDs; stated as 'may be'; cited from earlier work
OCI-LY7 cells = assay: Cell viability assay (CellTiter-Glo) in OCI-LY7 cells; assay type: cell-based, human
Method: (§1) Experiments were performed in cultured human cells to assess the efficacy of combined EZH2 inhibitor and immunomodulatory drug (e.g., an IMiD) treatment using an EZH2-mutant DLBCL cell line, SU-DHL-10, and an EZH2-wild type line, OCI-LY7. Cells were purchased from Nanjing Cobioer Biotechnology. SU-DHL-10 and OCI-LY7 cells were cultured at 37° C. with 5% CO2 in RPMI 1640 Medium supplemented with 10% fetal bovine serum. Cells were authenticated using the short tandem repeat (STR) assays. Mycoplasma test results were negative.
(§2) The cultured cells were seeded at a density of 5000 cells per well in 96-well assay plates and treated with test compounds at 10 μM followed by a 11-point 3-fold serial dilution or an 8-point 10-fold serial dilution. Cell viability was determined after 5 days, using the CellTiter-Glo assay kit (Promega) according to the manufacturer's instructions. The dose-response curves were determined and IC50 values were calculated using the GraphPad Prism software following a nonlinear regression (least squares fit) method. Each data point in the figure represents the mean values of at least two technical replicates ± standard deviation.
(§3) Cells were treated with EZH2 inhibitors in the presence of IMiDs at concentrations sufficient to induce degradation of IKZF1 and IKZF3 but not enough to kill cells. CC-122 and CC-220 were tested at a concentration of 1 μM; CC-92480 and CFT7455 were tested at a concentration of 1 nM; and CC-99282 was tested at a concentration of 10 nM.

SU-DHL-10 cells [1] = assay: Cell viability assay (CellTiter-Glo) in SU-DHL-10 cells; assay type: cell-based, human
SU-DHL-10 cells [2] = assay: as above; assay type: cell-based, human; settings: SU-DHL-10, single agent, 5 days
Method: as §1, §2, §3

| Compound | potency with regard to IKZF1 or IKZF3 degradation relative to older IMiDs (IKZF1 or IKZF3) [fold] | cell viability (sensitivity of the cells to the compound in combination) (OCI-LY7 cells; OCI-LY7, in the presence of 100 nM CPI-0209) | cell viability (sensitivity of the cells to the compound in combination) (OCI-LY7 cells; OCI-LY7, in the presence of 100 nM SHR2554) | cell viability, response of the cells to the single agent (OCI-LY7 cells; OCI-LY7, single agent, 5 days) | cell viability (sensitivity of the cells to the compound in combination) (SU-DHL-10 cells [1]; SU-DHL-10, in the presence of 100 nM CPI-0209) | cell viability (sensitivity of the cells to the compound in combination) (SU-DHL-10 cells [1]; SU-DHL-10, in the presence of 100 nM SHR2554) | cell viability, response of the cells to the single agent (SU-DHL-10 cells [2]) |
| --- | --- | --- | --- | --- | --- | --- | --- |
| N#Cc1ccc(N2CCN(Cc3ccc(COc4cccc5c4CN([C@H]4CCC(=O)NC4=O)C5=O)cc3)CC2)c(F)c1 [CC-92480, mezigdomide] | 1000 |  |  |  |  |  |  |
| O=C1CC[C@H](N2C(=O)c3cccc4c(Cc5ccc(CN6CCOCC6)cc5)ccc2c34)C(=O)N1 [CFT7455, (S)-3-(6-(4-(morpholinomethyl)benzyl)-2-oxobenzo[cd]indol-1(2H)-yl)piperidine-2,6-dione] |  | lowered cell viability more than treatment with CFT7455 alone | lowered cell viability more than treatment with CFT7455 alone | moderately responsive | lowered cell viability more than treatment with CFT7455 alone | lowered cell viability more than treatment with CFT7455 alone | moderately responsive |
